Tests used:
Type in all cases: functional
Mus musculus [1] = experiment: Inhibition of acute experimental autoimmune encephalomyelitis in SJL/N mice by 0.2 mg/kg/day p.o.; conditions: route oral
Mus musculus [2] = experiment: Inhibition of acute experimental autoimmune encephalomyelitis (aEAE) induced in SJL/N mice at a dose of 1 mg/kg/day, (po)
Mus musculus [3] = experiment: Inhibition of acute experimental autoimmune encephalomyelitis in SJL/N mice by 5 mg/kg/day p.o./s.c.; conditions: route oral
Mus musculus [4] = experiment: Inhibition of acute experimental autoimmune encephalomyelitis in SJL/N mice by 0.2 mg/kg/day p.o./s.c.; conditions: po
Mus musculus [5] = experiment: Inhibition of acute experimental autoimmune encephalomyelitis in SJL/N mice by 1 mg/kg/day p.o./s.c.; conditions: route oral
Mus musculus [6] = experiment: Inhibition of acute experimental autoimmune encephalomyelitis in SJL/N mice by 5 mg/kg/day p.o.; conditions: route oral
Mus musculus [7] = experiment: Inhibition of acute experimental autoimmune encephalomyelitis (aEAE) induced in SJL/N mice at a dose of 5 mg/kg/day, (sc) was determined; Inactive
Mus musculus [8] = experiment: Inhibition of acute experimental autoimmune encephalomyelitis (aEAE) induced in SJL/N mice at a dose of 0.2 mg/kg/day, (po) was determined; Inactive
Mus musculus [9] = experiment: Inhibition of acute experimental autoimmune encephalomyelitis (aEAE) induced in SJL/N mice at a dose of 1 mg/kg/day, (po) was determined; Inactive

Structure (SMILES)	inhibition in vivo at 0.2 mg/kg/day (Mus musculus [1])	inhibition in vivo at 1 mg/kg/day (Mus musculus [2])	inhibition in vivo at 5 mg/kg/day (Mus musculus [3])	inhibition in vivo at 0.2 mg/kg/day (Mus musculus [4])	inhibition in vivo at 1 mg/kg/day (Mus musculus [5])	inhibition in vivo at 5 mg/kg/day (Mus musculus [6])	further results
CCc1cccc2c1c(O)c(C(=O)N(CC)c1ccccc1)c(=O)n2C [PAQUINIMOD]	81%	100%					
Cc1cccc2c1c(O)c(C(=O)N(C)c1ccccc1)c(=O)n2C			97%	95%	100%		
COc1ccc2c(c1)c(O)c(C(=O)N(C)c1ccccc1)c(=O)n2C			100%	83%	100%		
CN(C(=O)c1c(O)c2c([N+](=O)[O-])cccc2n(C)c1=O)c1ccccc1	46%	96%				100%	
CCN(C(=O)c1c(O)c2c(OC)cccc2n(C)c1=O)c1ccccc1			86%	69%	73%		
CCN(C(=O)c1c(O)c2c(Cl)cccc2n(C)c1=O)c1ccccc1 [LAQUINIMOD]			96%	66%	92%		
CN(C(=O)c1c(O)c2cc(OC(F)(F)F)ccc2n(C)c1=O)c1ccccc1			96%	63%	72%		
CN(C(=O)c1c(O)c2c(C(F)(F)F)cccc2n(C)c1=O)c1ccccc1		99%				100%	
CSc1cccc2c1c(O)c(C(=O)N(C)c1ccccc1)c(=O)n2C	94%	100%				100%	
COc1cccc2c(O)c(C(=O)N(C)c3ccccc3)c(=O)n(C)c12							inhibition in vivo at 5 mg/kg/day (Mus musculus [7]): < 35%
CCN(C(=O)c1c(O)c2cc(OC)ccc2n(C)c1=O)c1ccccc1			84%	39%	37%		
COc1cccc2c1c(O)c(C(=O)N(C)c1ccc(Cl)cc1)c(=O)n2C			89%	77%	70%		
COc1cccc2c1c(O)c(C(=O)N(C)c1ccccc1F)c(=O)n2C	94%	82%				100%	
CCN(C(=O)c1c(O)c2c3c(ccc2n(C)c1=O)OCO3)c1ccccc1	58%	75%				99%	
CCOc1cccc2c1c(O)c(C(=O)N(C)c1ccccc1)c(=O)n2C	44%	40%				76%	
CN(C)c1cccc2c1c(O)c(C(=O)N(C)c1ccccc1)c(=O)n2C	58%	93%				100%	
COc1cccc2c1c(O)c(C(=O)N(C)c1cccc(Cl)c1)c(=O)n2C	54%	85%				71%	
CN(C(=O)c1c(O)c2ccccc2n(-c2ccccc2)c1=O)c1ccccc1							inhibition in vivo at 5 mg/kg/day (Mus musculus [7]): < 35%
COc1ccc(N(C)C(=O)c2c(O)c3c(OC)cccc3n(C)c2=O)cc1	78%	84%					
COc1cccc(N(C)C(=O)c2c(O)c3c(OC)cccc3n(C)c2=O)c1			85%	35%	90%		
COc1cccc2c1c(O)c(C(=O)N(C)c1ccc(F)cc1)c(=O)n2C			93%	92%			
C=CCN(C(=O)c1c(O)c2c(Cl)cccc2n(C)c1=O)c1ccccc1		59%				81%	
COc1cccc2c1c(O)c(C(=O)N(C)c1c(F)cccc1F)c(=O)n2C	28%	43%					
COc1cccc2c1c(O)c(C(=O)N(C)c1cc(F)ccc1F)c(=O)n2C	62%	90%				95%	
CN(C(=O)c1c(O)c2cccc(C(F)(F)F)c2n(C)c1=O)c1ccc(Cl)cc1Cl							inhibition in vivo at 5 mg/kg/day (Mus musculus [7]): < 35%

Structure (SMILES)	inhibition in vivo at 0.2 mg/kg/day (Mus musculus [1])	inhibition in vivo at 1 mg/kg/day (Mus musculus [2])	inhibition in vivo at 5 mg/kg/day (Mus musculus [3])	inhibition in vivo at 0.2 mg/kg/day (Mus musculus [4])	inhibition in vivo at 1 mg/kg/day (Mus musculus [5])	inhibition in vivo at 5 mg/kg/day (Mus musculus [6])	further results
CC(C)N(C(=O)c1c(O)c2c(Cl)cccc2n(C)c1=O)c1ccccc1		54%				70%	inhibition in vivo at 0.2 mg/kg/day (Mus musculus [8]): < 35%
CCN(C(=O)c1c(O)c2cc(C(F)(F)F)ccc2n(C)c1=O)c1ccccc1		57%					inhibition in vivo at 0.2 mg/kg/day (Mus musculus [8]): < 35%
CN(C(=O)c1c(O)c2cc(F)ccc2n(C)c1=O)c1ccc(F)cc1			93%		77%		
COc1ccc2nc(O)c(C(=O)N(C)c3ccc(F)cc3)c(O)c2c1							inhibition in vivo at 5 mg/kg/day (Mus musculus [7]): < 35%
COc1ccccc1N(C)C(=O)c1c(O)c2c(OC)cccc2n(C)c1=O							inhibition in vivo at 0.2 mg/kg/day (Mus musculus [8]): < 35%; inhibition in vivo at 1 mg/kg/day (Mus musculus [9]): < 35%
CCN(C(=O)c1c(O)c2c(Br)cccc2n(C)c1=O)c1ccccc1	57%	95%					
CCN(C(=O)c1c(O)c2c(F)cccc2n(C)c1=O)c1ccccc1		60%					
CN(C(=O)c1c(O)c2cc(C(F)(F)F)ccc2n(C)c1=O)c1ccccc1			100%	67%	100%		
Cc1ccc2c(c1)c(O)c(C(=O)N(C)c1ccccc1)c(=O)n2C			100%	62%	79%		
COc1cccc2c1c(O)c(C(=O)N(C)c1ccccc1Cl)c(=O)n2C		50%				68%	inhibition in vivo at 0.2 mg/kg/day (Mus musculus [8]): < 35%
CN(C(=O)c1c(O)c2ccc(Oc3ccccc3)cc2n(C)c1=O)c1ccc(F)cc1							inhibition in vivo at 5 mg/kg/day (Mus musculus [7]): < 35%
CCN(C(=O)c1c(O)c2c(SC)cccc2n(C)c1=O)c1ccccc1	51%	73%				99%	
COc1cccc2c1c(O)c(C(=O)N(C)c1ccc(F)cc1F)c(=O)n2C	76%	88%					
COc1cccc2c1c(O)c(C(=O)N(C)c1cccc(C(C)(C)C)c1)c(=O)n2C	38%	60%				84%	
CCCN(C(=O)c1c(O)c2c(Cl)cccc2n(C)c1=O)c1ccccc1	49%	94%				100%	
COc1cccc2c1c(O)c(C(=O)N(C)c1ccc(C(C)(C)C)cc1)c(=O)n2C	60%	84%				98%	
COc1cccc2c1c(O)c(C(=O)N(C)c1ccccc1)c(=O)n2C			96%	79%	95%		
CN(C(=O)c1c(O)c2ccc(Cl)cc2n(C)c1=O)c1ccccc1							inhibition in vivo at 5 mg/kg/day (Mus musculus [7]): < 35%
CCN(C(=O)c1c(O)c2cc(C)ccc2n(C)c1=O)c1ccccc1							inhibition in vivo at 0.2 mg/kg/day (Mus musculus [8]): < 35%; inhibition in vivo at 1 mg/kg/day (Mus musculus [9]): < 35%
COc1ccc2c(O)c(C(=O)N(C)c3ccccc3)c(=O)n(C)c2c1							inhibition in vivo at 5 mg/kg/day (Mus musculus [7]): < 35%
COc1cccc2c1c(O)c(C(=O)N(C)c1cccc(Oc3ccccc3)c1)c(=O)n2C			90%	47%	63%		
CN(C(=O)c1c(O)c2c(Cl)cccc2n(C)c1=O)c1ccccc1			100%	91%	99%		
CN(C(=O)c1c(O)c2cc(Cl)ccc2n(C)c1=O)c1ccccc1			100%	81%	100%		
CCN(C(=O)c1c(O)c2c(C(F)(F)F)cccc2n(C)c1=O)c1ccccc1	49%	80%					
COc1cccc2c1c(O)c(C(=O)N(C)c1cccc(F)c1F)c(=O)n2C							inhibition in vivo at 0.2 mg/kg/day (Mus musculus [8]): < 35%; inhibition in vivo at 1 mg/kg/day (Mus musculus [9]): < 35%
